{"source": "patent US9657351B2", "about": "“MRNA-based gene expression for personalizing patient cancer therapy with an MDM2 antagonist” (Hoffmann-La Roche Inc., priority 2013, dated 2017)", "experiment_in_all_cases": "COMPOUND A In Vitro Assay", "assay_type_in_all_cases": "cell-based", "key": {"786-O": {"test_system": "786-O", "details": "Homo sapiens, 786-0, Kidney, TP53 Mutant", "in_short": "(§1)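 Screening format: high throughput. Agent: RG7112 (MDM2 antagonist). Cells: diverse human cancer lines. Derived value: IC50, with the cut-offs sensitive <=1 and resistant >=10.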"}, "A-204": {"test_system": "A-204", "details": "Homo sapiens, A204, Muscle, TP53 Mutant", "in_short": "as §1"}, "A549": {"test_system": "A549", "details": "Homo sapiens", "in_short": "as §1"}, "ACHN": {"test_system": "ACHN", "details": "Homo sapiens", "in_short": "as §1"}, "ARH-77": {"test_system": "ARH-77", "details": "Homo sapiens, Lymphocyte B, peripheral blood, TP53 Mutant", "in_short": "as §1"}, "BxPC-3": {"test_system": "BxPC-3", "details": "Homo sapiens, Pancreas, TP53 Mutant", "in_short": "as §1"}, "CFPAC-1": {"test_system": "CFPAC-1", "details": "Homo sapiens, Pancreas, TP53 Mutant", "in_short": "as §1"}, "COLO 320DM": {"test_system": "COLO 320DM", "details": "Homo sapiens, Intestine, large, colon, TP53 Mutant", "in_short": "as §1"}, "Caki-1": {"test_system": "Caki-1", "details": "Homo sapiens", "in_short": "as §1"}, "D-283MED": {"test_system": "D-283MED", "details": "Homo sapiens, D283 Med, tissue NA, TP53 Wild type", "in_short": "as §1"}, "DU-4475": {"test_system": "DU-4475", "details": "Homo sapiens, Breast, mammary gland, TP53 Wild type", "in_short": "as §1"}, "EFO-21": {"test_system": "EFO-21", "details": "Homo sapiens, Ovary, TP53 Mutant", "in_short": "as §1"}, "ES2": {"test_system": "ES2", "details": "Homo sapiens, ES-2, Ovary, TP53 NA", "in_short": "as §1"}, "HARA-B": {"test_system": "HARA-B", "details": "Homo sapiens, Lung, TP53 Mutant", "in_short": "as §1"}, "HCC1500": {"test_system": "HCC1500", "details": "Homo sapiens, Breast, mammary gland, TP53 Wild type", "in_short": "as §1"}, "HEC-151": {"test_system": "HEC-151", "details": "Homo sapiens, Uterus, TP53 Mutant", "in_short": "as §1"}, "HL-60": {"test_system": "HL-60", "details": "Homo sapiens, Blood, TP53 Mutant", "in_short": "as §1"}, "HPAC": {"test_system": "HPAC", "details": "Homo sapiens, Pancreas, TP53 Mutant", "in_short": "as §1"}, "HT-1376": {"test_system": "HT-1376", "details": "Homo sapiens, Urinary, bladder, TP53 Mutant", "in_short": "as §1"}, "IMR-32": {"test_system": "IMR-32", "details": "Homo sapiens", "in_short": "as §1"}, "KMM-1": {"test_system": "KMM-1", "details": "Homo sapiens, Lymphocyte, TP53 Mutant", "in_short": "as §1"}, "Kasumi-1": {"test_system": "Kasumi-1", "details": "Homo sapiens, Lymphocyte, peripheral blood, TP53 Mutant", "in_short": "as §1"}, "LNCaP clone FGC": {"test_system": "LNCaP clone FGC", "details": "Homo sapiens", "in_short": "as §1"}, "MEG-01": {"test_system": "MEG-01", "details": "Homo sapiens, Leukemia, chronic myeloid, TP53 Mutant", "in_short": "as §1"}, "MIA PaCa-2": {"test_system": "MIA PaCa-2", "details": "Homo sapiens, Pancreas, TP53 Mutant", "in_short": "as §1"}, "MOLM-13": {"test_system": "MOLM-13", "details": "Homo sapiens", "in_short": "as §1"}, "NB-4": {"test_system": "NB-4", "details": "Homo sapiens, Myeloblast, TP53 Mutant", "in_short": "as §1"}, "NCI-H1568": {"test_system": "NCI-H1568", "details": "Homo sapiens, tissue NA, TP53 Mutant", "in_short": "as §1"}, "NCI-H1703": {"test_system": "NCI-H1703", "details": "Homo sapiens, Lung, TP53 Mutant", "in_short": "as §1"}, "NCI-H1838": {"test_system": "NCI-H1838", "details": "Homo sapiens, Lung, TP53 Mutant", "in_short": "as §1"}, "NCI-H2030": {"test_system": "NCI-H2030", "details": "Homo sapiens, Lung, TP53 Mutant", "in_short": "as §1"}, "OPM-2": {"test_system": "OPM-2", "details": "Homo sapiens, Lymphocyte B, TP53 Mutant", "in_short": "as §1"}, "PC-13": {"test_system": "PC-13", "details": "Homo sapiens, Lung, TP53 Mutant", "in_short": "as §1"}, "PC-3": {"test_system": "PC-3", "details": "Homo sapiens, Prostate, TP53 Mutant", "in_short": "as §1"}, "SCC-25": {"test_system": "SCC-25", "details": "Homo sapiens, Tongue, TP53 Mutant", "in_short": "as §1"}, "T84": {"test_system": "T84", "details": "Homo sapiens, Intestine, large, colon, TP53 Mutant", "in_short": "as §1"}}}
{"smiles": "CCOc1cc(C(C)(C)C)ccc1C1=N[C@@](C)(c2ccc(Cl)cc2)[C@@](C)(c2ccc(Cl)cc2)N1C(=O)N1CCN(CCCS(C)(=O)=O)CC1", "note": "[COMPOUND A]", "values": [{"measurement": "IC50", "setting": "786-O", "result": 9.5, "unit": "µM"}, {"measurement": "IC50", "setting": "A-204", "result": 8.4, "unit": "µM"}, {"measurement": "IC50", "setting": "A549; A549, A549, Lung, TP53 Wild type", "result": 0.86, "unit": "µM"}, {"measurement": "IC50", "setting": "A549; A549, A549 cells", "result": 0.9, "unit": "µM"}, {"measurement": "IC50", "setting": "ACHN; ACHN cells", "result": 0.3, "unit": "µM"}, {"measurement": "IC50", "setting": "ACHN; Kidney, TP53 Wild type", "result": 0.29, "unit": "µM"}, {"measurement": "IC50", "setting": "ARH-77", "result": 17, "unit": "µM"}, {"measurement": "IC50", "setting": "BxPC-3", "result": 18, "unit": "µM"}, {"measurement": "IC50", "setting": "CFPAC-1", "result": 5.7, "unit": "µM"}, {"measurement": "IC50", "setting": "COLO 320DM", "result": 12, "unit": "µM"}, {"measurement": "IC50", "setting": "Caki-1; CAKI-1, Caki-1, Kidney, TP53 Wild type", "result": 0.37, "unit": "µM"}, {"measurement": "IC50", "setting": "Caki-1; CAKI-1, Caki-1 cells", "result": 0.4, "unit": "µM"}, {"measurement": "IC50", "setting": "D-283MED", "result": 1.2, "unit": "µM"}, {"measurement": "IC50", "setting": "DU-4475", "result": 2.1, "unit": "µM"}, {"measurement": "IC50", "setting": "EFO-21", "result": 31, "unit": "µM"}, {"measurement": "IC50", "setting": "ES2", "result": 3.3, "unit": "µM"}, {"measurement": "IC50", "setting": "HARA-B", "result": 10, "unit": "µM"}, {"measurement": "IC50", "setting": "HCC1500", "result": 1, "unit": "µM"}, {"measurement": "IC50", "setting": "HEC-151", "result": 2.2, "unit": "µM"}, {"measurement": "IC50", "setting": "HL-60", "result": 7, "unit": "µM"}, {"measurement": "IC50", "setting": "HPAC", "result": 4.6, "unit": "µM"}, {"measurement": "IC50", "setting": "HT-1376", "result": 16, "unit": "µM"}, {"measurement": "IC50", "setting": "IMR-32; IMR-32, IMR-32, Brain, TP53 Wild type", "result": 0.43, "unit": "µM"}, {"measurement": "IC50", "setting": "IMR-32; IMR-32, IMR-32 cells", "result": 0.4, "unit": "µM"}, {"measurement": "IC50", "setting": "KMM-1", "result": 19, "unit": "µM"}, {"measurement": "IC50", "setting": "Kasumi-1", "result": 21, "unit": "µM"}, {"measurement": "IC50", "setting": "LNCaP clone FGC; LNCaP clone FGC cells", "result": 0.2, "unit": "µM"}, {"measurement": "IC50", "setting": "LNCaP clone FGC; LNCaP clone FGC, tissue NA, TP53 Wild type", "result": 0.17, "unit": "µM"}, {"measurement": "IC50", "setting": "MEG-01", "result": 17, "unit": "µM"}, {"measurement": "IC50", "setting": "MIA PaCa-2", "result": 19, "unit": "µM"}, {"measurement": "IC50", "setting": "MOLM-13; MOLM-13, MOLM-13, Blood, TP53 Wild type", "result": 0.19, "unit": "µM"}, {"measurement": "IC50", "setting": "MOLM-13; MOLM-13, MOLM-13 cells", "result": 0.2, "unit": "µM"}, {"measurement": "IC50", "setting": "NB-4", "result": 4.7, "unit": "µM"}, {"measurement": "IC50", "setting": "NCI-H1568", "result": 9.6, "unit": "µM"}, {"measurement": "IC50", "setting": "NCI-H1703", "result": 9.1, "unit": "µM"}, {"measurement": "IC50", "setting": "NCI-H1838", "result": 9.8, "unit": "µM"}, {"measurement": "IC50", "setting": "NCI-H2030", "result": 9.2, "unit": "µM"}, {"measurement": "IC50", "setting": "OPM-2", "result": 13, "unit": "µM"}, {"measurement": "IC50", "setting": "PC-13", "result": 14, "unit": "µM"}, {"measurement": "IC50", "setting": "PC-3", "result": 9, "unit": "µM"}, {"measurement": "IC50", "setting": "SCC-25", "result": 9.4, "unit": "µM"}, {"measurement": "IC50", "setting": "T84", "result": 5.3, "unit": "µM"}]}
